Laboratory results as given in patent publication US5552411A, “Sulfonylquinolines as central nervous system and cardiovascular agents” (Warner-Lambert Company, priority 1995, dated 1996).
Like-named read-outs stand apart in the source and are kept apart here.

Columns and labels:
[1] = molecular target: T1, Human Neuropeptide Y1 Receptors (Homo sapiens, UniProt P25929); assay: Receptor binding: inhibition of [^125 I]Peptide YY binding to human neuropeptide Y1 receptors (SK-N-MC membranes)
T1 construct: 50 μL SK-N-MC preparation containing 50 μg/tube membrane protein; host or cells: SK-N-MC human neuroblastoma cells (membranes)
T1 sequence (P25929 1-384): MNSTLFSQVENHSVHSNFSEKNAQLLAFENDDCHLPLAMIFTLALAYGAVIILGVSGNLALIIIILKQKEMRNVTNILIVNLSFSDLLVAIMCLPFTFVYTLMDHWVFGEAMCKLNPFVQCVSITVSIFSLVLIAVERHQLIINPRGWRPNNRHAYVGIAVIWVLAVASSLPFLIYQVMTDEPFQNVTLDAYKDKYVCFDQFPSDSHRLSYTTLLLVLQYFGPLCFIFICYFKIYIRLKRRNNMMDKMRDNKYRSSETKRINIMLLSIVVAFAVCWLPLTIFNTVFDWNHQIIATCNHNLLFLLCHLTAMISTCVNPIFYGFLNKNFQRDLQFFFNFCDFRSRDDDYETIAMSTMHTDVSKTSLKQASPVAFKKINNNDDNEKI
Experimental: The compounds of Formula I are valuable neuropeptide Y1 antagonists. The compounds of Formula I were tested for their ability to bind to the neuropeptide Y1 receptor subtype as measured by their inhibition of [^125 I]Peptide YY to human NPY1 receptors.
Human neuroblastoma cells, SK-N-MC, obtained from American Type Culture Collection were grown in Dulbecco's modified Eagle medium (Gibco) containing 10% fetal bovine serum and 100 units per mL/100 μg/mL penicillin/streptomycin (Gibco). After cells were confluent, growth media was replaced with fresh media and cells were allowed to continue growing for an additional 24 hours. Cells were then harvested in a buffer consisting of the following: 25 mM Tris(hydroxymethyl)amino methane (Tris), pH 7.4, 6 mM MgCl2, 250 μg/mL bacitracin, 250 μg/mL aprotinin, 250 μg/mL leupeptin, 250 μg/mL 4-(2-aminoethyl)-benzenesulfonylfluoride hydrochloride (Peflabloc) (Pentapharm AG). Growth media was removed and cells were lifted from the flasks with Dulbecco's phosphate buffered saline (D-PBS) containing 0.02% ethylenediaminetetraacetic acid (EDTA). Cells were pelleted and homogenized using a polytron, and broken membranes were pelleted by centrifugation at 18,000 rpm for 10 minutes at 4° C. The pelleted membranes were resuspended in the above buffer and frozen at […].
D-PBS (Gibco) pH 7.4, containing 0.5 g/L bacitracin and […] bovine serum albumin (BSA), was used in the preparation of compound and radiolabel. Each assay tube consisted of the following: […] of compound or buffer, 100 μL[^125 I]-PYY (Peptide YY) (30 pM), and 50 μL SK-N-MC preparation containing 50 μg/tube membrane protein for a total volume of 250 μL/tube. Non-specific binding was defined by the addition of 300 nM final concentration of neuropeptide Y. After addition of all reagents, tubes were shaken while incubating for 60 minutes at room temperature. The assay was terminated by filtering through a Whatman GF/C filter previously saturated with 0.1% polyethylenimine in 10 mM Tris, pH 7.5 containing 0.1% BSA. Filters were punched from the filter mat, placed in tubes, and counted for 1 minute using a gamma counter. The Ki was determined using the Graph PAD data analysis software program.

rats = conditions: administration into the central nervous system; cited from earlier work
[2] = 30 pM [^125 I]-PYY, SK-N-MC membranes, 60 minutes, room temperature, pH 7.4, read-out: Inhibition of [^125 I]Peptide YY Binding to Human Neuropeptide Y1 Receptors Ki

| Ki [1, 2] [nM] | Compound | other results |
| --- | --- | --- |
| 1400 | CC(C)(C)c1ccccc1S(=O)(=O)c1cc(N)c2ncccc2c1[N+](=O)[O-] [Example 31, 6-(2-tert-Butyl-benzenesulfonyl)-5-nitro-quinolin-8-ylamine] | – |
| 46 | Nc1cc(S(=O)(=O)c2cccc3ccccc23)c([N+](=O)[O-])c2cccnc12 [Example 20, 6-(Naphthalene-1-sulfonyl)-5-nitro-quinolin-8-ylamine] | – |
| 590 | CC(=O)Nc1ccccc1S(=O)(=O)c1cc(N)c2ncccc2c1[N+](=O)[O-] [Example 25, N-[2-(8-Amino-5-nitro-quinoline-6-sulfonyl)-phenyl]-acetamide] | – |
| 119 | Cc1ccccc1S(=O)(=O)c1cc(N)c2ncccc2c1[N+](=O)[O-] [Example 12, 5-Nitro-6-(toluene-2-sulfonyl)-quinolin-8-ylamine] | – |
| – | NPY: Neuropeptide Y (NPY), involved in the control of feeding in mammals; agonist in the cAMP assay | effect on feeding (rats): dramatic increase in feeding |
| 148 | Cc1ccc(C)c(S(=O)(=O)c2cc(N)c3ncccc3c2[N+](=O)[O-])c1 [Example 6, 6-(2,5-Dimethyl-benzenesulfonyl)-5-nitro-quinolin-8-ylamine] | – |
| 892 | Nc1cc(S(=O)(=O)c2cccc(Cl)c2)c([N+](=O)[O-])c2cccnc12 [Example 15, 6-(3-Chloro-benzenesulfonyl)-5-nitro-quinolin-8-ylamine] | – |
| – | Nc1cc(S(=O)(=O)c2ccc([N+](=O)[O-])cc2)c([N+](=O)[O-])c2cccnc12 [Example 8, 5-Nitro-6-(4-nitro-benzenesulfonyl)-quinolin-8-ylamine] | Ki [1]: 1000 nM |
| 295 | Cc1cccc(C)c1S(=O)(=O)c1cc(N)c2ncccc2c1[N+](=O)[O-] [Example 14, 6-(2,6-Dimethyl-benzenesulfonyl)-5-nitro-quinolin-8-ylamine] | – |
| 854 | N#Cc1ccc(S(=O)(=O)c2cc(N)c3ncccc3c2[N+](=O)[O-])cc1 [Example 11, 4-(8-Amino-5-nitro-quinoline-6-sulfonyl)-benzonitrile] | – |
| 283 | Nc1cc(S(=O)(=O)c2cc(Cl)ccc2Cl)c([N+](=O)[O-])c2cccnc12 [Example 30, 6-(2,5-Dichloro-benzenesulfonyl)-5-nitro-quinolin-8-ylamine] | – |
| 373 | Cc1cccc(S(=O)(=O)c2cc(N)c3ncccc3c2[N+](=O)[O-])c1 [Example 9, 5-Nitro-6-(toluene-3-sulfonyl)-quinolin-8-ylamine] | – |
| 58 | Nc1cc(S(=O)(=O)c2ccccc2F)c([N+](=O)[O-])c2cccnc12 [Example 27, 6-(2-Fluoro-benzenesulfonyl)-5-nitro-quinolin-8-ylamine] | – |
| 84 | Nc1cc(S(=O)(=O)c2ccccc2C(F)(F)F)c([N+](=O)[O-])c2cccnc12 [Example 29, 5-Nitro-6-(2-trifluoromethyl-benzenesulfonyl)-quinolin-8-ylamine] | – |
| 1140 | COc1ccc(S(=O)(=O)c2cc(N)c3ncccc3c2[N+](=O)[O-])cc1 [Example 3, 6-(4-Methoxy-benzenesulfonyl)-5-nitro-quinolin-8-ylamine] | – |
| 603 | Nc1cc(S(=O)(=O)c2ccc(F)cc2)c([N+](=O)[O-])c2cccnc12 [Example 16, 6-(4-Fluoro-benzenesulfonyl)-5-nitro-quinolin-8-ylamine] | – |

| Ki [1, 2] [nM] | Compound | other results |
| --- | --- | --- |
| 129 | CCc1ccccc1S(=O)(=O)c1cc(N)c2ncccc2c1[N+](=O)[O-] [Example 18, 6-(2-Ethyl-benzenesulfonyl)-5-nitro-quinolin-8-ylamine] | – |
| 273 | Nc1cc(S(=O)(=O)c2c(Cl)cccc2Cl)c([N+](=O)[O-])c2cccnc12 [Example 23, 6-(2,6-Dichloro-benzenesulfonyl)-5-nitro-quinolin-8-ylamine] | – |
| 93 | Nc1cc(S(=O)(=O)c2ccccc2Cl)c([N+](=O)[O-])c2cccnc12 [Example 13, 6-(2-Chloro-benzenesulfonyl)-5-nitro-quinolin-8-ylamine] | – |
| 3200 | CC(C)(C)c1ccc(S(=O)(=O)c2cc(N)c3ncccc3c2[N+](=O)[O-])cc1 [Example 7, 6-(4-tert-Butyl-benzenesulfonyl)-5-nitro-quinolin-8-ylamine] | – |
| 93 | Nc1cc(S(=O)(=O)c2cccc(Cl)c2Cl)c([N+](=O)[O-])c2cccnc12 [Example 26, 6-(2,3-Dichloro-benzenesulfonyl)-5-nitro-quinolin-8-ylamine] | – |
| 48 | CC(C)c1ccccc1S(=O)(=O)c1cc(N)c2ncccc2c1[N+](=O)[O-] [Example 19, 6-(2-Isopropyl-benzenesulfonyl)-5-nitro-quinolin-8-ylamine] | – |
| 490 | COc1ccccc1S(=O)(=O)c1cc(N)c2ncccc2c1[N+](=O)[O-] [Example 21, 6-(2-Methoxy-benzenesulfonyl)-5-nitro-quinolin-8-ylamine] | – |
| 1750 | Nc1cc(S(=O)(=O)c2ccc(Cl)cc2)c([N+](=O)[O-])c2cccnc12 [Example 2, 6-(4-Chloro-benzenesulfonyl)-5-nitro-quinolin-8-ylamine] | – |
| 594 | Cc1ccc(S(=O)(=O)c2cc(N)c3ncccc3c2[N+](=O)[O-])cc1 [Example 4, 5-Nitro-6-(toluene-4-sulfonyl)-quinolin-8-ylamine] | – |
| 48 | CC(C)c1cccc(C(C)C)c1S(=O)(=O)c1cc(N)c2ncccc2c1[N+](=O)[O-] [Example 28, 6-(2,6-Diisopropyl-benzenesulfonyl)-5-nitro-quinolin-8-ylamine] | – |
| 136 | Nc1cc(S(=O)(=O)c2ccc(O)cc2)c([N+](=O)[O-])c2cccnc12 [Example 10, 4-(8-Amino-5-nitro-quinoline-6-sulfonyl)-phenol] | – |
| 234 | Nc1cc(S(=O)(=O)c2ccccc2Br)c([N+](=O)[O-])c2cccnc12 [Example 24, 6-(2-Bromo-benzenesulfonyl)-5-nitro-quinolin-8-ylamine] | – |
| 311 | COc1cccc(S(=O)(=O)c2cc(N)c3ncccc3c2[N+](=O)[O-])c1 [Example 17, 6-(3-Methoxy-benzenesulfonyl)-5-nitro-quinolin-8-ylamine] | – |
| 1200 | Nc1cc(S(=O)(=O)c2ccc3ccccc3c2)c([N+](=O)[O-])c2cccnc12 [Example 5, 6-(Naphthalene-2-sulfonyl)-5-nitro-quinolin-8-ylamine] | – |
| 297 | Nc1cc(S(=O)(=O)c2ccccc2)c([N+](=O)[O-])c2cccnc12 [Example 1, 6-Benzenesulfonyl-5-nitro-quinolin-8-ylamine] | – |
| 222 | Cc1ccc(S(=O)(=O)c2cc(N)c3ncccc3c2[N+](=O)[O-])c(C)c1 [Example 22, 6-(2,4-Dimethyl-benzenesulfonyl)-5-nitro-quinolin-8-ylamine] | – |
